Laboratory results taken from PubChem BioAssay (NCI).
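Cells were grown in 96-well plates and exposed to each compound for 48 hours at five concentrations; endpoints were interpolated linearly between bracketing concentrations, or set to the highest concentration if not reached. TGI: total growth inhibition.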

Columns and labels:
Assay in all cases: NCI-60 cell line screen, 48 h
SR leukemia = tested on: SR leukemia
SN12C renal = tested on: SN12C renal
LXFL 529 NSCLC = tested on: LXFL 529 NSCLC
NCI-H460 lung = tested on: NCI-H460 lung
NCI-H23 lung = tested on: NCI-H23 lung
ACHN renal = tested on: ACHN renal
PC-3 prostate = tested on: PC-3 prostate
IGROV1 ovarian = tested on: IGROV1 ovarian
OVCAR-5 ovarian = tested on: OVCAR-5 ovarian
CCRF-CEM leukemia = tested on: CCRF-CEM leukemia
SNB-75 CNS = tested on: SNB-75 CNS
SK-MEL-5 melanoma = tested on: SK-MEL-5 melanoma
MALME-3M melanoma = tested on: MALME-3M melanoma
LOX IMVI melanoma = tested on: LOX IMVI melanoma
UACC-257 melanoma = tested on: UACC-257 melanoma
BT-549 breast = tested on: BT-549 breast
K-562 leukemia = tested on: K-562 leukemia
HS 578T breast = tested on: HS 578T breast
A549 NSCLC = tested on: A549 NSCLC
T-47D breast = tested on: T-47D breast
MDA-N = tested on: MDA-N
786-0 renal = tested on: 786-0 renal
HOP-18 NSCLC = tested on: HOP-18 NSCLC
A498 renal = tested on: A498 renal
M19-MEL melanoma = tested on: M19-MEL melanoma
RPMI-8226 leukemia = tested on: RPMI-8226 leukemia
OVCAR-4 ovarian = tested on: OVCAR-4 ovarian
DU-145 prostate = tested on: DU-145 prostate
OVCAR-3 ovarian = tested on: OVCAR-3 ovarian
NCI-H522 lung = tested on: NCI-H522 lung
U251 CNS = tested on: U251 CNS
SK-OV-3 ovarian = tested on: SK-OV-3 ovarian
MOLT-4 leukemia = tested on: MOLT-4 leukemia
SK-MEL-28 melanoma = tested on: SK-MEL-28 melanoma
KM20L2 colon = tested on: KM20L2 colon
SF-295 CNS = tested on: SF-295 CNS
DMS 114 small cell lung = tested on: DMS 114 small cell lung
HCC-2998 colon = tested on: HCC-2998 colon
RXF 393 renal = tested on: RXF 393 renal
NCI-H226 lung = tested on: NCI-H226 lung
TK-10 renal = tested on: TK-10 renal
HOP-92 NSCLC = tested on: HOP-92 NSCLC
HT29 colon = tested on: HT29 colon
SNB-78 CNS = tested on: SNB-78 CNS
SF-268 CNS = tested on: SF-268 CNS
DLD-1 colon = tested on: DLD-1 colon
MDA-MB-231 breast = tested on: MDA-MB-231 breast
XF 498 CNS = tested on: XF 498 CNS
EKVX NSCLC = tested on: EKVX NSCLC
COLO 205 colon = tested on: COLO 205 colon
UO-31 renal = tested on: UO-31 renal
KM12 colon = tested on: KM12 colon
DMS 273 small cell lung = tested on: DMS 273 small cell lung
MDA-MB-435 = tested on: MDA-MB-435
HCT-116 colon = tested on: HCT-116 colon
SW-620 colon = tested on: SW-620 colon
UACC-62 melanoma = tested on: UACC-62 melanoma
NCI/ADR-RES ovarian = tested on: NCI/ADR-RES ovarian
SK-MEL-2 melanoma = tested on: SK-MEL-2 melanoma
HOP-62 NSCLC = tested on: HOP-62 NSCLC
SF-539 CNS = tested on: SF-539 CNS
CAKI-1 renal = tested on: CAKI-1 renal
MCF7 breast = tested on: MCF7 breast
SNB-19 CNS = tested on: SNB-19 CNS
OVCAR-8 ovarian = tested on: OVCAR-8 ovarian
HCT-15 colon = tested on: HCT-15 colon
M14 melanoma = tested on: M14 melanoma
RXF-631 renal = tested on: RXF-631 renal
HL-60(TB) leukemia = tested on: HL-60(TB) leukemia

Measured: TGI

Cc1cc(NC(=O)C(=O)Cc2nc3ccccc3s2)ccc1Cl
not listed: RXF-631 renal | HL-60(TB) leukemia
> 100 µM: all other assays above

O=C(Cc1nc2ccccc2s1)NC12CC3CC(CC(C3)C1)C2
not listed: PC-3 prostate | IGROV1 ovarian | OVCAR-5 ovarian | SK-MEL-5 melanoma | BT-549 breast | HS 578T breast | T-47D breast | MDA-N | HOP-18 NSCLC | RPMI-8226 leukemia | DU-145 prostate | OVCAR-3 ovarian | DMS 114 small cell lung | RXF 393 renal | MDA-MB-231 breast | XF 498 CNS | COLO 205 colon | MDA-MB-435 | NCI/ADR-RES ovarian | MCF7 breast
> 100 µM: all other assays above
